According to the supplement of paper PMC10878532, “Sperm Toolbox—A selection of small molecules to study human spermatozoa” (PLOS ONE, 2024):
Structures can show the parent of a compound that is named as a salt.

Columns and labels:
HepG2 = HepG2 toxicity (resazurin), effect normalised to DMSO (DMSO = 0); higher = more features changed / larger toxic effect; details: incubation time: 70h incubation
HeLa [1] = test: HeLa toxicity: nuclei-count effect normalised to DMSO (DMSO = 0); higher = more features changed / larger toxic effect; details: incubation time: 24h incubation
HeLa [2] = test: Cell Painting percent induction (share of features beyond 2 z-scores vs DMSO); higher = more features changed / larger toxic effect; extreme values may be limits of the assay; details: incubation time: 24h incubation
human spermatozoa [3] = test: total motile sperm, percent change vs DMSO (non-capacitating); higher = more of the measured sperm population than DMSO, for viability, fewer PI-positive (dead) cells than DMSO
human spermatozoa [4] = test: viability fold change, 1 - (PI-positive fraction / DMSO median); higher = more of the measured sperm population than DMSO, for viability, fewer PI-positive (dead) cells than DMSO; details: incubation time: 3h, non-capacitating
human spermatozoa [5] = test: progressively motile sperm, percent change vs DMSO (capacitating); higher = more of the measured sperm population than DMSO, for viability, fewer PI-positive (dead) cells than DMSO; details: incubation time: 30min incubation
human spermatozoa [6] = test: hyperactivated motile sperm, percent change vs DMSO (capacitating); higher = more of the measured sperm population than DMSO, for viability, fewer PI-positive (dead) cells than DMSO; details: incubation time: 30min incubation
human spermatozoa [7] = test: change in acrosome-reacted (PNA+) sperm vs DMSO, no agonist (capacitating); higher = more of the measured sperm population than DMSO, for viability, fewer PI-positive (dead) cells than DMSO; details: incubation time: 3h
human spermatozoa [8] = test: acrosome-reacted (PNA+) sperm after agonist cocktail, percent change vs DMSO (capacitating); higher = more of the measured sperm population than DMSO, for viability, fewer PI-positive (dead) cells than DMSO; details: incubation time: 3h, capacitating + agonist cocktail 1h
human spermatozoa [9] = test: progressively motile sperm, percent change vs DMSO (non-capacitating); higher = more of the measured sperm population than DMSO, for viability, fewer PI-positive (dead) cells than DMSO; extreme values may be limits of the assay
[10] = incubation time: 10min incubation, 9.99 µM
[11] = incubation time: 10min incubation, 29.9 µM
[12] = incubation time: 3h incubation, 9.99 µM
[13] = incubation time: 3h incubation, 29.9 µM
[14] = incubation time: 6h incubation, 9.99 µM
[15] = incubation time: 6h incubation, 29.9 µM
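For progressively motile sperm, percent change vs DMSO (non-capacitating) in this document: pooled live human sperm from at least 3 donors, tracked by automated microscopy in 0.5 s time-lapse movies, compounds at 10 and 30 µM, versus median of 16 DMSO wells per plate.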
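For total motile sperm, percent change vs DMSO (non-capacitating) in this document: sperm pooled from at least 3 donors, tracked in 0.5 s time-lapse movies by automated microscopy after 10 min, 3 h or 6 h with compound at 10 or 30 µM.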

Row | Compound | HepG2 toxicity (HepG2; 10 µM) [%] | HepG2 toxicity (HepG2; 30 µM) [%] | HeLa toxicity: nuclei-count effect normalised (HeLa [1]; 9.99 µM) [%] | HeLa toxicity: nuclei-count effect normalised (HeLa [1]; 29.9 µM) [%] | Cell Painting percent induction (HeLa [2]; 9.99 µM) [%] | Cell Painting percent induction (HeLa [2]; 29.9 µM) [%] | total motile sperm (human spermatozoa [3]; [10]) [%] | total motile sperm (human spermatozoa [3]; [11]) [%] | total motile sperm (human spermatozoa [3]; [12]) [%] | total motile sperm (human spermatozoa [3]; [13]) [%] | total motile sperm (human spermatozoa [3]; [14]) [%] | total motile sperm (human spermatozoa [3]; [15]) [%] | viability fold change (human spermatozoa [4]; 9.99 µM) | viability fold change (human spermatozoa [4]; 29.9 µM) | progressively motile sperm (human spermatozoa [5]; 9.99 µM) [%] | progressively motile sperm (human spermatozoa [5]; 29.9 µM) [%] | hyperactivated motile sperm (human spermatozoa [6]; 9.99 µM) [%] | hyperactivated motile sperm (human spermatozoa [6]; 29.9 µM) [%] | change in acrosome-reacted (human spermatozoa [7]; 9.99 µM) [%] | change in acrosome-reacted (human spermatozoa [7]; 29.9 µM) [%] | acrosome-reacted (human spermatozoa [8]; 9.99 µM) [%] | acrosome-reacted (human spermatozoa [8]; 29.9 µM) [%] | progressively motile sperm (human spermatozoa [9]; [10]) [%] | progressively motile sperm (human spermatozoa [9]; [11]) [%] | progressively motile sperm (human spermatozoa [9]; [12]) [%] | progressively motile sperm (human spermatozoa [9]; [13]) [%] | progressively motile sperm (human spermatozoa [9]; [14]) [%] | progressively motile sperm (human spermatozoa [9]; [15]) [%]
1 | COc1cc(C(=O)N2CCC(N3CCN(C)CC3)CC2)ccc1Nc1ncc2c(n1)N(C)c1ccccc1C(=O)N2C [LRRK2-IN-1] | 7.52 | 56.2 | 44.2 | 53.9 | 5.8 | 10.2 | -2.77 | -1.16 | -9.9 | -13 | -11.9 | -17.6 | -0.856 | -0.909 | 7.96 | 4.98 | 224 | 215 | 1.4 | 1.43 | 58.9 | 103 | 31.1 | 27.8 | 57.2 | 50.6 | 62.8 | 43.3
2 | CC(C)c1ccc2c(c1)CC[C@H]1[C@](C)(CN)CCC[C@]21C [Leelamine hydrochloride] | 102 | 103 | 88.2 | 98.4 | 25.1 | 36.4 | -0.495 | -12.1 | 1.52 | -51.7 | -1.74 | -63.5 | -1.89 | -2.79 | 4.41 | -53.6 | -31 | -87.5 | 5.38 | 14.4 | 41.7 | 60.2 | 15.1 | -12.8 | 51.8 | -74.2 | 59.5 | -84.3
3 | C[C@]1(O)C[C@@H](c2nc(-c3ccc4ccc(-c5ccccc5)nc4c3)c3c(N)nccn32)C1 [Linsitinib] | -2.88 | 27.2 | 2.74 | 25 | 1.62 | 0.144 | 2.7 | 5.16 | -8.39 | -6.08 | -8.05 | -11.2 | -1.24 | -1.48 | 10.2 | 14.7 | 219 | 114 | 1.26 | 1.92 | 115 | 113 | 43.2 | 45.9 | 71.3 | 65.1 | 93.9 | 79.2
4 | CCCCCCCCCCCCCCCCOCC(COCC(F)(F)F)OP(=O)([O-])OC (stereo not given) [MJ33] | -0.425 | 2.58 | 6.41 | 1 | 0 | 0.036 | 2.25 | 4.52 | -13.2 | 0.791 | -9.12 | -4.03 | -0.678 | -0.975 | 10.8 | 15.1 | 21.6 | 9.77 | 0.541 | 1 | 6.57 | 19.6 | 3.5 | 11.9 | -6.92 | -2.7 | -4.8 | -4.44
5 | COCC(=O)O[C@]1(CCN(C)CCCc2nc3ccccc3[nH]2)CCc2cc(F)ccc2[C@@H]1C(C)C [Mibefradil] | 14 | 103 | 35.6 | 97.9 | 5.66 | 43.7 | -1.6 | 0.488 | -3.96 | -8.13 | -7.2 | -14.3 | -1.48 | -2.28 | 3.94 | 6.24 | -13.7 | -48.1 | 0.323 | 1.49 | 18.3 | 38.1 | 1.95 | 0.528 | 16.4 | 25.7 | 27.4 | 23.4
6 | CCCCN1C[C@@H](O)[C@H](O)[C@H](O)[C@@H]1CO [Miglustat] | 5.75 | -4.38 | 0.0668 | -3.87 | 0 | 0 | -1.47 | 0.804 | -1.56 | -0.192 | -5.48 | -3.6 | -0.2 | 0.248 | 5.12 | 9.04 | 12.2 | 2.46 | -0.0821 | -0.0793 | -0.571 | -6.96 | -0.816 | 3.26 | 9.63 | 8.04 | 8.15 | 7.52
7 | CC(C)[C@H]1c2ccc(F)cc2CC[C@@]1(CCN(C)CCCc1nc2ccccc2[nH]1)OC(=O)C1CC1 [NNC 55-0396 dihydrochloride] | 102 | 103 | 97.3 | 95.5 | 27.1 | 14.2 | 0.104 | -33.4 | -15 | -93.6 | -24.8 | -93 | -1.31 | -2.3 | 4.2 | -98.6 | -62 | -82.2 | 4.14 | 29.2 | 52.4 | 51.1 | 5.26 | -62.2 | 16.3 | -100 | 7.86 | -100
8 | Nc1ncnc2c1c(-c1cccc(OCc3ccccc3)c1)cn2[C@H]1C[C@@H](CN2CCC2)C1 [NVP-AEW541] | 82.9 | 103 | 27.7 | 99.5 | 8.93 | 57.6 | -0.708 | -2.42 | 2.29 | -8.07 | -0.444 | -10.1 | -0.326 | -0.581 | 1.09 | 5.49 | 16.7 | -13.9 | 0.03 | 0.662 | 10.6 | 31.6 | 6.28 | 11.5 | 31.9 | 34.1 | 48.5 | 31.5
9 | N=C(N)Nc1ccc(C(=O)Oc2ccc3cc(C(=N)N)ccc3c2)cc1 [Nafamostat] | -7.68 | 4.06 | 2.4 | 1.27 | 0 | 0 | -0.692 | 2.17 | -4.33 | -1.82 | -5.56 | -0.0709 | -0.884 | -0.901 | 3.69 | 9.5 | 5.36 | 1.98 | 0.86 | 1.56 | 5.51 | 15.9 | -2.19 | 0.269 | -19.4 | -27.7 | -23.3 | -29.6
10 | O=C(Nc1ccc([N+](=O)[O-])cc1Cl)c1cc(Cl)ccc1O [Niclosamide] | -3.07 | 1.35 | 31.1 | 32.3 | 8.47 | 7.82 | -2.96 | -1.25 | -8.32 | -3.27 | -6.27 | -2.49 | 0.501 | 0.431 | -1.8 | -5.95 | -59.6 | -70.1 | 1.03 | 1.07 | 7.25 | 4.65 | -28.1 | -27.6 | -26.2 | -30.1 | -18.2 | -26.8
11 | O=C(O)c1cccnc1Nc1cccc(C(F)(F)F)c1 [Niflumic acid] | 4.41 | -6.15 | 2.94 | -2.27 | 0 | 0 | 2.12 | 1.32 | -5.94 | -1.61 | -3.08 | -6.87 | -1.06 | -0.652 | 5.54 | 7.87 | 19.3 | -6.47 | 0.714 | 0.944 | 4.85 | -0.457 | 9.44 | 5.93 | -5.45 | 4.68 | 7.86 | -5.16
12 | COC(=O)[C@]1(C)CC[C@]2(C)CC[C@]3(C)C4=CC=C5C(=CC(=O)C(O)=C5C)[C@]4(C)CC[C@@]3(C)[C@@H]2C1 [Pristimerin] | 103 | 103 | 98.7 | 98.7 | 46.9 | 38.9 | -50.2 | -83.1 | -90.8 | -88.7 | -92.1 | -85.4 | -0.933 | -1.2 | -74.5 | -96.6 | -72.5 | -73.6 | 3.63 | 6.18 | -52.1 | -57.5 | -86.8 | -99.9 | -100 | -100 | -100 | -99.9
13 | CCOCc1nc2c(N)nc3ccccc3c2n1CC(C)(C)O [Resiquimod] | 12.3 | -1.68 | 1.14 | 0.735 | 0 | 0 | -0.764 | -12.1 | -11.9 | -23.9 | -12.4 | -21.3 | -0.843 | -0.207 | -29.5 | -59.7 | -81.8 | -84.5 | 0.989 | 0.739 | 2.21 | -0.339 | -38.4 | -75.7 | -66.1 | -88 | -66.2 | -83.9
14 | [O-][S+](c1ccccc1)c1ccc2nnnn2n1 (stereo not given) [Ro 106-9920] | 103 | 103 | 43.7 | 96.9 | 0.684 | 42.4 | -8.15 | -30.9 | -92.3 | -89.9 | -92.2 | -89.8 | -0.184 | -0.13 | -9.75 | -78.3 | -3.35 | -67.1 | 8.05 | 18.3 | 149 | 142 | -34.9 | -68.2 | -100 | -99.9 | -100 | -100
15 | [O]=[V]([O-])([O-])[O-] [Sodium orthovanadate] | -3.1 | 8.27 | -6.61 | -4.07 | 0 | 0 | 2.91 | 0.876 | 8.66 | -0.441 | 8.42 | -0.812 | -0.276 | -0.0929 | 5.23 | 3.21 | 14.9 | 5.6 | 0.239 | 0.284 | 9.33 | 1.67 | 7.34 | 4.35 | 13.8 | 7.93 | 20 | 10.3
